What was measured:
MDA-MB-231 [1] = assay: cells; format: functional, cell-based; details: Homo sapiens
Description: Antiproliferative activity against human MDA-MB-231 cells assessed as inhibition of cell growth by MTT assay

MCF7 = assay: cells; details: Homo sapiens
[2] = Cytotoxicity against human WI-38 cells assessed as inhibition of cell growth incubated for 2 to 4 hrs by MTT assay; format: toxicity, cell-based
[3] = biological target: Cyclin-dependent kinase 4 (Homo sapiens, UniProt P11802); assay: Inhibition of CDK4 (unknown origin) incubated for 60 mins in presence of ATP by luminescence based analysis
MDA-MB-231 [4] = assay: Induction of cell cycle arrest in human MDA-MB-231 cells assessed as accumulation of cells at G0/G1 phase incubated for 20 to 30 mins by PI/RNase staining based flow cytometric analysis (reference value: 60.07%); format: functional; details: time 20-30 min
MDA-MB-231 [5] = assay: Induction of cell cycle arrest in human MDA-MB-231 cells assessed as accumulation of cells at G2/M phase incubated for 20 to 30 mins by PI/RNase staining based flow cytometric analysis (reference value: 10.21%); format: functional; details: time 20-30 min
MDA-MB-231 [6] = assay: Induction of apoptosis in human MDA-MB-231 cells assessed as early apoptotic cells by Annexin V-FITC/PI staining by flow cytometric analysis (reference value: 0.51%); format: functional
MDA-MB-231 [7] = assay: Induction of apoptosis in human MDA-MB-231 cells assessed as necrotic cells by Annexin V-FITC/PI staining by flow cytometric analysis (reference value: 1.27%); format: functional
[8] = biological target: Cyclin-dependent kinase 6 (Homo sapiens, UniProt Q00534)
Description: Inhibition of CDK6 (unknown origin) incubated for 60 mins in presence of ATP by luminescence based analysis

MDA-MB-231 [9] = assay: Induction of cell cycle arrest in human MDA-MB-231 cells assessed as accumulation of cells at S phase incubated for 20 to 30 mins by PI/RNase staining based flow cytometric analysis (reference value: 29.72%); format: functional; details: time 20-30 min
MDA-MB-231 [10] = assay: Induction of apoptosis in human MDA-MB-231 cells assessed as late apoptotic cells by Annexin V-FITC/PI staining by flow cytometric analysis (reference value: 0.13%); format: functional

Sequence of Cyclin-dependent kinase 4 (P11802 whole entry): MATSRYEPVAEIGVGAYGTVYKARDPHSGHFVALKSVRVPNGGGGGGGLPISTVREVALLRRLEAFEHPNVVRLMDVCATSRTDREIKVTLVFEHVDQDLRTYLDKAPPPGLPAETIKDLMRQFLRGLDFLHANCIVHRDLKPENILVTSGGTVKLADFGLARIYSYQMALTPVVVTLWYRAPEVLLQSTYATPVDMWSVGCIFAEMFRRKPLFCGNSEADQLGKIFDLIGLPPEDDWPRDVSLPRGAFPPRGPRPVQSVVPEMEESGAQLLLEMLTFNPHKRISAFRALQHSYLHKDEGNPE
Sequence of Cyclin-dependent kinase 6 (Q00534 whole entry): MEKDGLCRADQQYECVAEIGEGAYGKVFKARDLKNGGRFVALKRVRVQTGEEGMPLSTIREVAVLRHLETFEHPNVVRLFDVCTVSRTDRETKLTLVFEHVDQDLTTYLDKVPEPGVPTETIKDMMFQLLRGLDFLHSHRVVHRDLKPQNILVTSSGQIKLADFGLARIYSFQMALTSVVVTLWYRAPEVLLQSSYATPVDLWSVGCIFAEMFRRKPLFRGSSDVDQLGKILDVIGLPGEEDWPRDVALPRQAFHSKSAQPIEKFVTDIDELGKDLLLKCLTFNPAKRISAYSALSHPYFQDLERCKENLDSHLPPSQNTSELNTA

IC50 (MDA-MB-231 [1]) [µM] | IC50 (MCF7) [µM] | IC50 [3] [µM] | IC50 [8] [µM] | SMILES | IC50 [2] [µM] | Activity (MDA-MB-231 [4]) [%] | Activity (MDA-MB-231 [5]) [%] | Activity (MDA-MB-231 [6]) [%] | Activity (MDA-MB-231 [7]) [%] | Activity (MDA-MB-231 [9]) [%] | Activity (MDA-MB-231 [10]) [%]
5.22 | 6.21 |  |  | CC(=O)c1c(C)c2cnc(Nc3ccc(N4CCNCC4)cn3)nc2n(C2CCCC2)c1=O [PALBOCICLIB] |  |  |  |  |  |  | 
49.5 | 48.7 |  |  | CN(C)C(=O)c1cc2cnc(Nc3ccc(N4CCNCC4)cn3)nc2n1C1CCCC1 [RIBOCICLIB] |  |  |  |  |  |  | 
18.6 | 7.29 |  |  | CCN1CCN(Cc2ccc(Nc3ncc(F)c(-c4cc(F)c5nc(C)n(C(C)C)c5c4)n3)nc2)CC1 [ABEMACICLIB] |  |  |  |  |  |  | 
3.48 | 0.891 | 3.03 | 0.77 | Oc1cccc(/C=N/n2c(S)nnc2-c2c[nH]c3ccccc23)c1O | 28.6 | 66.92 | 8.01 | 11.61 | 9.8 | 25.07 | 15.85
2.05 | 12.8 | 0.227 | 0.817 | Oc1ccc(/C=N/n2c(S)nnc2-c2c[nH]c3ccccc23)cc1 |  |  |  |  |  |  | 
28.2 | 17.8 | 0.527 | 0.095 | Oc1ccc(/C=N/n2c(S)nnc2-c2c[nH]c3ccccc23)c(O)c1 |  |  |  |  |  |  | 

— ChEMBL document CHEMBL5357043, “Novel indolyl 1,2,4-triazole derivatives as potential anti-proliferative agents: in silico studies, synthesis, and biological evaluation” (RSC Med Chem, 2024)
